These results are taken from publication PMC5107130 (Pharmacological Research, 2016).

Entries after “also recorded” stand apart in the source; their conditions may differ. Where two headings read alike, the source gives them in different places.

In series [1] the target is T1, Recombinant full length human CBS (Homo sapiens, UniProt P35520).
T1 sequence (P35520 1-551): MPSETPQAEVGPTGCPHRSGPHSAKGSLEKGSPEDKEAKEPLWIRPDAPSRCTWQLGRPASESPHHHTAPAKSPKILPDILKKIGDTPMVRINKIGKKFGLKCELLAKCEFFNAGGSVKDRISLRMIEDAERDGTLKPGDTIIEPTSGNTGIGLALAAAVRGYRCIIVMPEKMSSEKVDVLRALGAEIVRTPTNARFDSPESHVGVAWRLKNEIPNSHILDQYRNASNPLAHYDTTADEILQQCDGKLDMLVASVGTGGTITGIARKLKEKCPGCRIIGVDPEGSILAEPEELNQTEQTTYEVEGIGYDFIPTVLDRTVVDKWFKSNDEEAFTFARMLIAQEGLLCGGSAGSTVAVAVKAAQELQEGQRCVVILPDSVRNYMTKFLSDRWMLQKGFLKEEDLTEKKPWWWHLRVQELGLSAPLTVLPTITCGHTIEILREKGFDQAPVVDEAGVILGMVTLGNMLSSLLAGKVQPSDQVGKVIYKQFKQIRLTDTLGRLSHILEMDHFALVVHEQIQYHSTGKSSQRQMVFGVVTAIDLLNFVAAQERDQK
Nature of the series: AzMC fluorescence assay of CBS-derived H2S production. The series is classed as biochemical. Conditions: for % inhibition of CBS-induced AzMC fluorescence: copper compounds, mean ± SEM, n = 3.

Series [2] concerns HCT116 cells. Nature of the series: Cell proliferation, xCELLigence system. In kind it is cell-based, human. Conditions: Cell Index, 48 h, concentration in the value.
In series [3] the test system is HCT116 cells. As to the kind of experiment: Cytotoxicity, lactate dehydrogenase. The series is classed as cell-based, human. Conditions: 48 h.
For series [4], the system named is HCT116 cells. Nature of the series: Mitochondrial function, MTT assay. The series is classed as cell-based, human. Conditions: 48 h. (Tetrazolium dyes change colour on reduction, which living cells bring about.)
Series [5] is described as follows: Counterscreen: AzMC fluorescence signal generated by the H2S donor GYY4137. As to conditions: for % inhibition of GYY4137-induced AzMC fluorescence / Confirmation (% inhibition of GYY4137-induced AzMC fluorescence): mean ± SEM, n = 3.
Series [6] has as its target T1, Recombinant full length human CBS. As to the kind of experiment: Methylene blue assay of CBS-derived H2S. In kind it is biochemical. As to conditions: read-out: % inhibition of CBS-induced methylene blue signal.
Series [7] concerns CBS. Conditions: cited from earlier work; for % inhibition of CBS activity: 1 mM.
Series [8] concerns CSE. As to conditions: cited from earlier work.
Setting [9] is: read-out: % inhibition of CBS-induced AzMC fluorescence, 10 μM, mean ± SEM, n = 3.
Where [10] appears, read: read-out: % inhibition of CBS-induced AzMC fluorescence, 100 μM, mean ± SEM, n = 3.
Where [11] appears, read: read-out: Confirmation (% inhibition of CBS-induced AzMC fluorescence), 30 μM, mean ± SEM, n = 3.
The mark [12] stands for this setting: read-out: Initial screen (% inhibition of CBS-induced AzMC fluorescence), 30 μM.
Setting [13] is: read-out: % inhibition of CBS-induced AzMC fluorescence.

As usually defined, the inhibition is the change of the read-out against control, counted positive when it falls. For `NNCc1ccc(O)c(O)c1O` [2,3,4-trihydroxybenzylhydrazine], the inhibition at 30 µM in series [1] (read-out: % inhibition of recombinant CBS activity, 30 μM, standard assay conditions) was 51 ± 2%. In addition, the inhibition at 100 µM in series [1] (read-out: % inhibition of recombinant CBS activity, 100 μM, standard assay conditions, freshly dissolved) was found to be 82%. Moreover, in series [2], the “Effect on HCT116 cell proliferation (words)” value (shortened to “Effect”) is reported as “inhibited HCT116 cell proliferation in vitro at 10–300 μM”. For the same molecule, the “Cytotoxicity / LDH release in HCT116 cells” value (from here on “Cytotoxicity / LDH release”) in series [3] is given as “did not exert cytotoxic effects”. Also, in series [4], the “MTT conversion in HCT116 cells” value is reported as “reduced MTT conversion at 300 μM”.

Usually IC50 stands for the concentration needed to halve the response being measured. On to `O=C(O)C1=CC(=C(c2ccc(O)c(C(=O)O)c2)c2ccc(O)c(C(=O)O)c2)C=CC1=O` [Aurintricarboxylic acid], for which the IC50 in series [1] is approximately 3 µM. For the same molecule, the inhibition at 10 µM in series [1] (setting [9]) came out at 72 ± 1%; in series [6], 38 ± 2%. Further, the inhibition at 100 µM came to 94 ± 1% in series [1] (setting [10]) and 72 ± 1% in series [6]. Besides, the inhibition at 30 µM in series [1] (setting [11]) turned out to be 87 ± 1%; in series [1] (setting [12]), 59%; in series [6], 61 ± 1%. The “% inhibition of GYY4137-induced AzMC fluorescence” value was −3 ± 2% in series [5] (10 μM) and 6 ± 1% in series [5] (100 μM). The “Confirmation (% inhibition of GYY4137-induced AzMC fluorescence)” value in series [5] (30 μM) is on record as −2 ± 1%. In addition, the “Effect” value in series [2] was “did not inhibit cell proliferation at 10–100 μM; also recorded: at 300 μM increased cell proliferation”; in series [2] (listed as aurintricarboxylic acid), “stimulated cell proliferation at 300 μM”.

For `[Cl][Cu][Cl]` [CuCl2, copper(II) chloride], the “% inhibition of CBS-induced AzMC fluorescence” value in series [1] (0.1 μM) was found to be 36 ± 1%; in series [1] (0.3 μM), 60 ± 2%; in series [1] (1 μM), 90 ± 1%. Further, the IC50 in series [1] (read-out: IC50, inhibition of recombinant CBS (CBS-induced AzMC fluorescence), cell-free, 2 mM L-cysteine and homocysteine) is approximately 0.2 µM. The “% inhibition of GYY4137-induced AzMC fluorescence” value in series [5] (copper compounds, 0.1 μM) was determined as 1 ± 1%; in series [5] (copper compounds, 0.3 μM) it was 10 ± 1%; in series [5] (copper compounds, 1 μM), 14 ± 1%. The “Effect” value is “only inhibited HCT116 cells proliferation at the highest concentration tested (1 mM)” in series [2] and “up to 300 μM, did not inhibit HCT116 cell proliferation” in series [2] (listed as copper ions). Moreover, in series [3], the “Cytotoxicity / LDH release” value was “paradoxical reduction in LDH activity”. The “MTT conversion in HCT116 cells” value in series [4] was “decreased MTT conversion”.

Consider `N[C@@H]1CON=C1O` [D-cycloserine], for which the “% inhibition of CBS activity” value in series [7] is 15–20%.

As for `Oc1c(Cl)cc(Cl)c(Cl)c1Cc1c(O)c(Cl)cc(Cl)c1Cl.Oc1c(Cl)cc(Cl)c(Cl)c1Cc1c(O)c(Cl)cc(Cl)c1Cl` [Hexachlorophene, 2,2′-methylenebis(3,4,6-trichlorophenol)-3,4,6-trichloro-2-[(2,3,5-trichloro-6-hydroxyphenyl)methyl]phenol], the IC50 in series [1] was approximately 60 µM. Also, the inhibition at 10 µM in series [1] (setting [9]) was found to be 3 ± 1%; in series [6], 21 ± 1%. The inhibition at 100 µM in series [1] (setting [10]) stood at 70 ± 1%; in series [6], 64 ± 1%. The inhibition at 30 µM came to 12 ± 1% in series [1] (setting [11]), 48% in series [1] (setting [12]) and 31 ± 1% in series [6]. In addition, the entries for the “% inhibition of GYY4137-induced AzMC fluorescence” value in series [5] (10 μM) and in series [5] (100 μM) were −4 ± 2% and −2 ± 1%, respectively. For the same molecule, the “Confirmation (% inhibition of GYY4137-induced AzMC fluorescence)” value in series [5] (30 μM) came out at 1 ± 1%. In addition, the “Effect” value in series [2] is recorded as “did not affect HCT116 proliferation up to 3 μM; also recorded: fully inhibited cell proliferation at 10 μM; also recorded: inhibits HCT116 proliferation at fairly low concentrations (10 μM)”. In addition, in series [3], the “Cytotoxicity / LDH release” value is recorded as “exerted cytotoxic effects”.

In the case of `Cn1ncnc2c(=O)n(C)c(=O)nc1-2` [NSC67078, 1,6-dimethyl-pyrimido[5,4-e]-1,2,4-triazine-5,7(1H,6H)-dione], the IC50 is approximately 1 µM in series [1] and approximately 6 µM in series [5] (read-out: IC50, inhibition of GYY4137-induced AzMC fluorescence, scavenging/non-specific effects). Moreover, the inhibition at 1 µM was found to be 47 ± 1% in series [1] (setting [13]) and 59 ± 2% in series [6]. The values for the inhibition at 10 µM in series [1] (setting [13]) and in series [6] were 88 ± 1% and 73 ± 1%, respectively. The values for the inhibition at 30 µM in series [1] (setting [13]) and in series [6] were 93 ± 1% and 95 ± 1%, respectively. Further, the “% inhibition of GYY4137-induced AzMC fluorescence” value worked out at 25 ± 1% in series [5] (1 μM), 65 ± 1% in series [5] (10 μM) and 78 ± 1% in series [5] (30 μM). Besides, the “MTT conversion in HCT116 cells” value in series [4] is on record as “suppression of MTT conversion”. Also, the “Potency of CSE inhibition relative to CBS inhibition (fold lower)” value in series [8] is 3 fold.

For the molecule `C#CCC(N)C(=O)O` (stereo not shown) [PAG], in series [7], the “CBS inhibition” value is listed as “is not an inhibitor of CBS”.

As to `O=C(OC[C@H]1O[C@@H](OC(=O)c2cc(O)c(O)c(OC(=O)c3cc(O)c(O)c(O)c3)c2)[C@H](OC(=O)c2cc(O)c(O)c(OC(=O)c3cc(O)c(O)c(O)c3)c2)[C@@H](OC(=O)c2cc(O)c(O)c(OC(=O)c3cc(O)c(O)c(O)c3)c2)[C@@H]1OC(=O)c1cc(O)c(O)c(OC(=O)c2cc(O)c(O)c(O)c2)c1)c1cc(O)c(O)c(OC(=O)c2cc(O)c(O)c(O)c2)c1` [Tannic acid, 2,3-dihydroxy-5-({[(2R,3R,4S,5R,6R)-3,4,5,6-tetrakis({3,4-dihydroxy-5-[(3,4,5-trihydroxyphenyl)carbonyloxy]phenyl}carbonyloxy)oxan-2-yl]methoxy}carbonyl)phenyl 3,4,5-trihydroxybenzoate], the IC50 in series [1] is approximately 40 µM. The inhibition at 10 µM in series [1] (setting [9]) is 28 ± 2%; in series [6], 24 ± 9%. For the same molecule, the inhibition at 30 µM in series [1] (read-out: % inhibition of CBS-induced AzMC fluorescence, 30 μM, mean ± SEM, n = 3) was 43 ± 1%; in series [1] (setting [11]) it was 43 ± 1%; in series [1] (setting [12]), 73%; in series [6], 46 ± 3%. Moreover, the inhibition at 100 µM in series [1] (setting [10]) came to 75 ± 1%; in series [6], 56 ± 3%. The “% inhibition of GYY4137-induced AzMC fluorescence” value is listed as −1 ± 1% in series [5] (10 μM), 3 ± 2% in series [5] (30 μM) and 8 ± 3% in series [5] (100 μM). For the same molecule, the “Confirmation (% inhibition of GYY4137-induced AzMC fluorescence)” value in series [5] (30 μM) came to 3 ± 2%. Also, the “Effect” value in series [2] is “concentration-dependently inhibited proliferation, starting with 10 μM; also recorded: complete inhibition was seen at 100 μM”. In series [3], the “Cytotoxicity / LDH release” value is given as “without signs of cytotoxicity”.

Regarding `NNC(=O)c1ccncc1` [isoniazid], in series [7], the “% inhibition of CBS activity” value is listed as 15–20%.
